Test results taken from patent US20200405868A1, “GEL-FORMING POLYPEPTIDES” (priority 2018, published 2020).
Where a SMILES comes first, the peptide text is derived from it. [ ]: non-standard residue; d: D form. The star is where a group is joined. Palmitoyl = CCCCCCCCCCCCCCCC(=O)*; AEEA = NCCOCCOCC(=O)O

Tests used:
[1] = Compound gel-forming ability in water (visual inspection, tube tapping assay, tilted tube assay); type: physicochemical; settings: for gel formation at 20% w/w: 20% w/w in water; for gel formation at 11% w/w: 11% w/w in water; for gel formation in aqueous solution, 6% / propensity to form gels, chimeric or mutated polypeptides, 6%: 6% w/w;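 as to all read-outs here: peptides mixed with de-ionized water at about 22-25 °C, judged after 20 min by eye plus tube tapping (10 taps, moves counted) and 90° tilt mobility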
Method: Determination of Compound Gel-forming Ability in Water: To determine the solubility of polypeptides at room temperature, 1, 2, 3, 4, 5, 20, or 100 mg of a selected peptide is weighed and deposited into a clear plastic or glass vial and an aliquot of de-ionized water was then added to the vial. The procedure takes place in a room which is maintained at approximately 22-25° C. […] Insoluble peptides sample retained the particles or paste-like characteristics after 20 min of reaction. In addition to visual inspection, we performed a tube tapping assay and a tilted tube assay to differentiate the gelling status of peptide solutions.
To determine the solubility of polypeptides at room temperature, 1, 2, 3, 4, 5, 20, or 100 mg of a selected peptide is weighed and deposited into a clear plastic vial and an aliquot of de-ionized water was then added to the vial. The procedure takes place in a room which is maintained at approximately 22-25° C. Polypeptide sample which is considered soluble dissolves instantly in water and stays as a clear solution without obvious macroscopic change in viscosity at 20 min after mixing with water. […] If macroscopic particles of peptides remain in the solution at 20 min after mixing with water, the peptide is considered insoluble or precipitated at the given concentration. In this case, the quality of peptides is further judged by two other criteria: (1) mobility following a tapping of the tube (tube tapping assay) and (2) mobility flowing tilting the tube by 900 (tilted tube assay). In the first assay, the tube is tapped with the finger for 10 times, and the number of times that the body of the solution changes position is recorded. An aqueous solution such as water will have a score of 9 or 10 in this assay; meaning that the body of the liquid moves every time when one taps the tube. […] Those with moderate viscosity form liquid gel that changes the conformation slowly when the container tube is tapped with a finger or tilted. […] If macroscopic change in the position of the body of gel was observed 5-9 time out of 10 separate tapping tests, the gel is considered a liquid gel. The high viscosity of a liquid gel is further confirmed using the tilted tube assay. […] If the liquid or gel body takes more than 15 seconds to flow to the bottom of the tilted tube, the resulting aqueous mass is considered a liquid gel.
To allow systematic analysis of the gel-forming ability, the assay was first conducted at a peptide concentration of 11% w/w in aqueous solution. The peptides analyzed included functional regulators of cell surface receptors, enzymes, complement factors, antimicrobial peptides, immunomodulators, therapeutic peptides, cell-penetrating peptide, antigens, matrikines, and analogs of CGRP, adrenomedullin and adenomedullin 2 (or intermedin).

CRH receptor 2 (CRHR2) = molecular target: T1, CRH receptor 2 (CRHR2) (Homo sapiens, UniProt Q13324); experiment: CRHR2 cAMP assay (Discoverx), agonistic; type: cell-based
T1 sequence (Q13324 1-411): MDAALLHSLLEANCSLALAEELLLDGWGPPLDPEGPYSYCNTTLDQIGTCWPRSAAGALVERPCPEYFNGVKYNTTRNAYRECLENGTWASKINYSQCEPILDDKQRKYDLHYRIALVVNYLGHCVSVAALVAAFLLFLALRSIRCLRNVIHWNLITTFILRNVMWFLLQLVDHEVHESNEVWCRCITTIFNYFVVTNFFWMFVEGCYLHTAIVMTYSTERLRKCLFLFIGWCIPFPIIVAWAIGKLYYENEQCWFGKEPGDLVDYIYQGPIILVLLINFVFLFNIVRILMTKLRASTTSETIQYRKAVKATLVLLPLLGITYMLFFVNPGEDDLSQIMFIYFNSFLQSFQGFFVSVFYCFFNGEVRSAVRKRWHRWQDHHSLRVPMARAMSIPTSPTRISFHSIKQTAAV
Method: (§1) The agonistic activities toward MC1R, MC4R, CRHR2, PTHR1, and OPRK1 were assyed with an MC1R cAMP assay, an MC4R cAMP assay, a CRHR2 cAMP assay, a PTHR1 cAMP assay and an OPRK1 cAMP assay from Discoverx Inc. (Fremont, Calif.), respectively. The antagonistic activities toward bradykinin receptor 2 (BDKRB2) and GnRH receptor (GnRHR or LHRHR) were assayed with a BDKRB2 arrestin assay and a GnRHR calcium flux assay from Discoverx, respectively.
(§2) For the analysis of Gs-coupled cAMP production, cAMP Hunter cell lines were expanded from freezer stocks, and cells were seeded in a total volume of 20 μL into white walled, 384-well microplates and incubated at 37 C for the appropriate time prior to testing. The cAMP modulation was determined using the DiscoverX HitHunter cAMP XS+ assay. For agonistic activity determination, cells were incubated with sample to induce response. Media was aspirated from cells and replaced with 15 μL 2:1 HBSS/10 mM Hepes: cAMP XS+ Ab reagent. Intermediate dilution of sample stocks was performed to generate 4× sample in assay buffer, and 5 μL of 4× sample was added to cells and incubated at 37 C or room temperature for 30 or 60 minutes. Vehicle concentration was 1%. The compound activity was analyzed using a CBIS data analysis suite (ChemInnovation, CA). For Gs-coupled agonistic assays, percentage activity is calculated using the following formula: % Activity=100%×(mean RLU of test sample−mean RLU of vehicle control)/(mean RLU of MAX control−mean RLU of vehicle control).

[2] = molecular target: T2, bradykinin receptor 2 (BDKRB2) (Homo sapiens, UniProt P30411); experiment: BDKRB2 arrestin assay (Discoverx), antagonistic; type: cell-based
T2 sequence (P30411 1-391): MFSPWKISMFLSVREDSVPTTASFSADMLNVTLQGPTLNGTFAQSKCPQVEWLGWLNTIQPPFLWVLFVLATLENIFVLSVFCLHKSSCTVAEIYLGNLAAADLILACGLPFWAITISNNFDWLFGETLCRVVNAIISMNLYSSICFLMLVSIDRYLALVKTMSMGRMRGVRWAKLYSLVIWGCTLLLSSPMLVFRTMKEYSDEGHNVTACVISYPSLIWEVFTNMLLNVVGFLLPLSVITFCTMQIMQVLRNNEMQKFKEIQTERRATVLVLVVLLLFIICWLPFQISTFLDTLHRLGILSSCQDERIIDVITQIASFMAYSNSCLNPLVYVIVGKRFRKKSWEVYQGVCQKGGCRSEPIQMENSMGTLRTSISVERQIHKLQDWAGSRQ
Method: For the Arrestin assays, PathHunter cell lines (Discoverx Inc.) were expanded from freezer stocks, and seeded in a total volume of 20 μL into white walled, 384-well microplates and incubated at 37 C for the appropriate time prior to testing. […] For antagonistic activity determination, cells were pre-incubated with antagonist followed by agonist challenge at the EC80 concentration. Intermediate dilution of sample stocks was performed to generate 5× sample in assay buffer, and 5 μL of 5× sample was added to cells and incubated at 37° C. or room temperature for 30 minutes. Vehicle concentration was 1%. Then, 5 μL of 6×EC80 agonist in assay buffer was added to the cells and incubated at 37 C or room temperature for 90 or 180 minutes.
Assay signal was generated through a single addition of 12.5 or 15 μL (50% v/v) of PathHunter Detection reagent cocktail, followed by an one hour incubation at room temperature. The microplates were read following signal generation with a PerkinElmer Envision™ instrument for chemiluminescent signal detection. The compound activity was analyzed using a CBIS data analysis suite (ChemInnovation, CA). […] For antagonistic activity assays, percentage inhibition was calculated using the following formula: % Inhibition=100%×(1−(mean RLU of test sample−mean RLU of vehicle control)/(mean RLU of EC80 control−mean RLU of vehicle control)).

PTH receptor 1 (PTHR1) = molecular target: T3, PTH receptor 1 (PTHR1) (Homo sapiens, UniProt Q03431); experiment: PTHR1 cAMP assay (Discoverx), agonistic; type: cell-based
T3 sequence (Q03431 27-593): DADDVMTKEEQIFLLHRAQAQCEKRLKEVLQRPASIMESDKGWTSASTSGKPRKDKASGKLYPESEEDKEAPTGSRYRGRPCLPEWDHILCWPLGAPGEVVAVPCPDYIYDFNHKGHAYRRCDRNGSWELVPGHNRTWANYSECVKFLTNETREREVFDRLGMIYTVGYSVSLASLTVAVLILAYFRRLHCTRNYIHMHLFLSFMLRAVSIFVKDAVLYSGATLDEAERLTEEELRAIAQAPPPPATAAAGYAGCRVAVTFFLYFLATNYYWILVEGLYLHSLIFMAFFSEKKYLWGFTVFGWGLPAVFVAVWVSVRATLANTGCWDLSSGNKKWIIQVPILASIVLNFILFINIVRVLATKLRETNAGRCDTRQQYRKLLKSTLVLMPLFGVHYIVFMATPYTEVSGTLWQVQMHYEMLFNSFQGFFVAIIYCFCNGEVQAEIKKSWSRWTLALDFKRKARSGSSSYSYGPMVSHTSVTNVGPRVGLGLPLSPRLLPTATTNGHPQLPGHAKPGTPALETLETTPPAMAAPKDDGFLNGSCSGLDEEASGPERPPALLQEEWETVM
Method: as §1
as §2, with “Intermediate dilution of sample stocks was performed to generate 4× sample in assay buffer, and 5 μL of 4× sample was added to cells and incubated at 37 C or room temperature for 30 or 60 minutes. Vehicle concentration was 1%.” left out

gel formation at 20% w/w [1] | gel formation in aqueous solution, 20% ([1]; Table 3, 20% w/w) | propensity to form gels, chimeric or mutated polypeptides, 11% ([1]; Table 5, 11% w/w) | Max Activity % of positive control (CRH receptor 2 (CRHR2)) | gel formation at 11% w/w [1] | Max Activity % of positive control [2] | Compound | gel formation in aqueous solution, 11% ([1]; Table 3, 11% w/w) | propensity to form gels, chimeric or mutated polypeptides, 20% ([1]; Table 5, 20% w/w) | gel formation in aqueous solution, 6% ([1]; Table 3) | propensity to form gels, chimeric or mutated polypeptides, 6% ([1]; Table 5) | Max Activity % of positive control (PTH receptor 1 (PTHR1)) | further results
semisolid or liquid gel | SS (SS for semisolid gel) | AS/IS | 100 % of positive control |  |  | Palmitoyl-SSPHSY[AEEA]IVLSLDVPIGLLQILLEQARARAAREQATTNARILARVGHC-NH2 [SEQ ID NO:230] | AS/IS (AS/IS for aqueous solution or insoluble) | SS (An ability to form semisolid gel is represented by an SS) |  |  |  | 
semisolid gel | SS (SS for semisolid gel) | AS/IS |  |  | 112 % of positive control | CCCCCCCCCCCCCCCC(=O)N[C@@H](Cc1c[nH]cn1)C(=O)N[C@@H](CO)C(=O)N[C@@H](Cc1ccc(O)cc1)C(=O)N[C@H](CCCNC(=N)N)C(=O)N[C@@H](CCCNC(=N)N)C(=O)N1CCC[C@H]1C(=O)N1C[C@H](O)C[C@H]1C(=O)NCC(=O)N[C@@H](Cc1cccs1)C(=O)N[C@@H](CO)C(=O)N1Cc2ccccc2C[C@@H]1C(=O)N1[C@H](C(=O)N[C@@H](CCCNC(=N)N)C(N)=O)C[C@@H]2CCCC[C@@H]21 [SEQ ID NO:234, Pal-HSY-(D-Arg)-Arg-Pro-Hyp-Gly-Thi-Ser-(D-Tic)-Oic-Arg-NH2] | AS/IS (AS/IS for aqueous solution or insoluble) | SS (An ability to form semisolid gel is represented by an SS) | AS/IS (AS/IS for aqueous solution or insoluble) | AS/IS |  | IC50 ([2]; bradykinin-stimulated): 53.3 nM

The next lines start with the compound.

Compound | gel formation at 20% w/w [1] | gel formation in aqueous solution, 20% ([1]; Table 3, 20% w/w) | propensity to form gels, chimeric or mutated polypeptides, 11% ([1]; Table 5, 11% w/w) | Max Activity % of positive control (CRH receptor 2 (CRHR2)) | gel formation at 11% w/w [1] | Max Activity % of positive control [2] | gel formation in aqueous solution, 11% ([1]; Table 3, 11% w/w) | propensity to form gels, chimeric or mutated polypeptides, 20% ([1]; Table 5, 20% w/w) | gel formation in aqueous solution, 6% ([1]; Table 3) | propensity to form gels, chimeric or mutated polypeptides, 6% ([1]; Table 5) | Max Activity % of positive control (PTH receptor 1 (PTHR1)) | further results
N=C(N)NCCC[C@@H](N)C(=O)N[C@@H](CCCNC(=N)N)C(=O)N1CCC[C@H]1C(=O)N1C[C@H](O)C[C@H]1C(=O)NCC(=O)N[C@@H](Cc1cccs1)C(=O)N[C@@H](CO)C(=O)N1Cc2ccccc2C[C@@H]1C(=O)N1[C@H](C(=O)N[C@@H](CCCNC(=N)N)C(=O)O)C[C@@H]2CCCC[C@@H]21 [SEQ ID NO:32, (D-Arg)-Arg-Pro-Hyp-Gly-Thi-Ser-(D-Tic)-Oic-Arg, reference compound] | does not form gel | AS/IS (AS/IS for aqueous solution or insoluble) |  |  | does not form gel | 100 % of positive control | AS/IS (AS/IS for aqueous solution or insoluble) |  |  |  |  | gel formation at 30% w/w ([1]; 30% w/w in water): does not form gel; Physical property at 11% w/w ([1]; Table 1, 11% w/w in aqueous solution, room temperature): AS/IS; gel formation in aqueous solution, 30% ([1]; Table 3, 30% w/w): AS/IS (AS/IS for aqueous solution or insoluble); propensity to form gels, wild-type counterparts, 11% ([1]; Table 5, 11% w/w): AS/IS; propensity to form gels, wild-type counterparts, 20% ([1]; Table 5, 20% w/w): AS/IS
CCCCCCCCCCCCCCCC(=O)N[C@@H](CCCCN)C(=O)N[C@@H](CO)C(=O)N[C@@H](Cc1ccc(O)cc1)C(=O)N[C@@H](CO)C(=O)N[C@@H](CC(C)C)C(=O)N[C@@H](CC(=O)O)C(=O)N[C@H](C(=O)N1CCC[C@H]1C(=O)N[C@H](C(=O)N[C@@H](CC(N)=O)C(=O)N[C@H](C(=O)N[C@@H](CCSC)C(=O)N[C@@H](CC(N)=O)C(=O)N[C@@H](CC(C)C)C(=O)N[C@@H](CC(C)C)C(=O)N[C@@H](Cc1ccccc1)C(=O)N[C@@H](CC(N)=O)C(=O)N[C@H](C(=O)N[C@@H](C)C(=O)N[C@@H](CCCCN)C(=O)N[C@@H](C)C(=O)N[C@@H](CCCCN)C(=O)N[C@@H](CC(N)=O)C(=O)N[C@@H](CC(C)C)C(=O)N[C@@H](CCCNC(=N)N)C(=O)N[C@@H](C)C(=O)N[C@@H](CCC(N)=O)C(=O)N[C@@H](C)C(=O)N[C@@H](C)C(=O)N[C@@H](C)C(=O)N[C@@H](CC(N)=O)C(=O)N[C@@H](C)C(=O)N[C@@H](Cc1c[nH]cn1)C(=O)N[C@@H](CC(C)C)C(=O)N[C@@H](CCSC)C(=O)N[C@@H](C)C(=O)N[C@@H](CCC(N)=O)C(=O)N[C@H](C(N)=O)[C@@H](C)CC)[C@@H](C)CC)[C@@H](C)CC)[C@@H](C)O)C(C)C [SEQ ID NO:231] (Palmitoyl-KSYSLDVPTNIMNLLFNIAKAKNLRAQAAANAHLMAQI-NH2) |  |  | SS (An ability to form semisolid gel is represented by an SS) | 78 % of positive control |  |  | SS (SS for semisolid gel) |  | SS (SS for semisolid gel) | SS (An ability to form semisolid gel is represented by an SS) |  | EC50 (CRH receptor 2 (CRHR2)): 5.7 nM
CCCCCCCCCCCCCCCC(=O)N[C@@H](Cc1c[nH]cn1)C(=O)N[C@@H](CO)C(=O)N[C@@H](Cc1ccc(O)cc1)C(=O)N[C@@H](CO)C(=O)N[C@@H](CCC(=O)O)C(=O)N[C@H](C(=O)N[C@@H](CCC(N)=O)C(=O)N[C@@H](CC(C)C)C(=O)N[C@@H](CCSC)C(=O)N[C@@H](Cc1c[nH]cn1)C(=O)N[C@@H](CC(N)=O)C(=O)N[C@@H](CC(C)C)C(=O)NCC(=O)N[C@@H](CCCCN)C(=O)N[C@@H](Cc1c[nH]cn1)C(=O)N[C@@H](CC(C)C)C(=O)N[C@@H](CC(N)=O)C(=O)N[C@@H](CO)C(=O)N[C@@H](CCSC)C(=O)N[C@@H](CCC(=O)O)C(=O)N[C@@H](CCCNC(=N)N)C(=O)N[C@H](C(=O)N[C@@H](CCC(=O)O)C(=O)N[C@@H](Cc1c[nH]c2ccccc12)C(=O)N[C@@H](CC(C)C)C(=O)N[C@@H](CCCNC(=N)N)C(=O)N[C@@H](CCCCN)C(=O)N[C@@H](CCCCN)C(=O)N[C@@H](CC(C)C)C(=O)N[C@@H](CCC(N)=O)C(=O)N[C@@H](CC(=O)O)C(=O)N[C@H](C(=O)N[C@@H](Cc1c[nH]cn1)C(=O)N[C@@H](CC(N)=O)C(=O)N[C@@H](Cc1ccccc1)C(=O)O)C(C)C)C(C)C)[C@@H](C)CC [SEQ ID NO:232] (Palmitoyl-HSYSEIQLMHNLGKHLNSMERVEWLRKKLQDVHNF-OH; C-terminus assumed) | semisolid gel | SS (SS for semisolid gel) |  |  | liquid gel |  |  | SS (An ability to form semisolid gel is represented by an SS) |  |  | 59 % of positive control | 
PTH (1-34) [reference compound] |  |  |  |  |  |  |  |  |  |  | 101 % of positive control | 
